In US20230277503A1, “COMPOSITIONS AND METHODS TO REDUCE PATHOGENESIS” (priority 2017, published 2023):
Entries after “also recorded” stand apart in the source; their conditions may differ. Where two headings read alike, the source gives them in different places. Marks after values point to notes of the source that are not given here.

Key:
[1] = tested on: human microvascular endothelial cells; assay: Endothelial tubule formation assay; type: cell-based; settings: geltrex basement membrane
Description: Referring to FIG. 35 for example, to assess the ability of 5-HT2A agonists and antagonists to inhibit capillary-like endothelial tube formation, human microvascular endothelial cells were seeded into geltrex basement membrane and overlaid with endothelial growth medium containing vascular endothelial growth factor (VEGF) and the indicated drugs. Both 5HT2A agonists and antagonists disrupted formation of endothelial tube networks, the formation of branching, complex capillary structures, and interconnectivity of capillary tubes.

[2] = tested on: human microvascular endothelial cells (HMEC); assay: HMEC spheroid vascular-like tubule outgrowth; type: cell-based; settings: matrigel with VEGF; serotonin 50 nM, R-DOI 100 nM, TCB2 500 nM
Description: HMEC cells were cultured in specially coated U-shaped bottom 96 well plates in order to form tissue-like 3 dimension spheroids. Spheroids were subsequently implanted into wells that contained matrigel basement membranes supplemented with vascular endothelial growth factor (VEGF) or starved (Starvation control-no VEGF). Culture media was treated with either serotonin (50 nM), (R-DOI (100 nM) or TCB2 (500 nM) outgrowth from the spheroids of vascular-like structures was monitored microscopically.

[3] = tested on: HSV-1; type: cell-based, mice; settings: 500 nM; for HSV-1 reactivation and amount of infectious virus shed from latent neurons (PFU/ml/TG): relative to mock/buffer control, 10 days
[4] = tested on: VEGF-mediated neovascularization from aortic rings; assay: Aortic ring neovascularization assay; type: cell-based, mice; settings: for blood vessel sprouting, branching and formation from aortic rings: VEGF-containing endothelial growth medium, matrigel
Description: Referring to FIG. 34 for example, the aortas from sacrificed mice are removed, cleaned, and dissected into 1 mm tubule sections. These aortic rings are implanted into matrigel basement membrane and incubated in endothelial cell growth medium containing vascular endothelial growth factor. Aortic rings are continuously incubated in the presence of 5HT2A receptor agonists and antagonists at the indicated concentrations and examined by microscopy daily. Extensive sprouting, branching and networking of new blood vessels can be observed in control aortic rings, where multiple images needed to be stitched together in order to capture the extensive blood vessel network formed.

[5] = tested on: TNFα-induced inflammatory gene and protein expression; settings: intraperitoneal, doses up to 30-fold below the CNS behaviorally-active threshold dose; aorta and intestine; cited from earlier work
[6] = tested on: HSV-1 RE; assay: Murine model of HSV-1 (RE) chronic herpetic keratitis; type: in vivo, BALB/c mice; settings: for signs of disease, including stromal opacity and corneal neovascularization: acute herpetic keratitis stage; for weight loss associated with HSV-1 ocular infection: day 5 to 11 post infection; for ocular histology (H&E, central cornea): day 15 post infection; for # Deceased / # Eyes showing signs of disease / Clinically clear eyes: day 15 post-infection, topical drops 4x per day for 8 days, (R)-DOI 500 μM; for stromal opacity score: following day 8 post infection; for clinical scores (slit lamp score, corneal opacity, neovascularization): up to 15 DPI, versus control BSS
Excerpt: (§1) 16 BALB/c mice, which can respond with a TH2 biased immune response, were randomly sorted into 3 treatment arms: 1) Ophthalmic Balanced Saline Solution diluted 1:1 in PBS (BSS+PBS) treated (6 mice); 2) DOI treated (XTPFDOI) (5 mice); 3) 1.0% TFT (TFT+PBS) (5 mice). Animals were anesthetized with […]:ketamine and both eyes were scarified in a cross hatch pattern using a curved needle. Immediately following ocular scarification, eyes were inoculated with a 3 microliter drop containing 10,000 plaque forming units (PFU) of Herpes Simplex Virus type 1 (HSV-1) RE strain. The next morning following infection animals were treated with the respective treatment as assigned within their treatment arm. Treatments were applied topically to the eye in a 4 microliter drop. Drops were applied 4× daily from 9 am to 5:30 pm starting immediately following clinical scoring. Treatments were applied for the first 8 days post infection and then stopped on day 8. Clinical scoring was done using a slit lamp biomicroscope magnified at 16× on the days indicated by a single individual masked to the drug treatment parameters. Slit lamp biomicroscopy also included fluorescein exclusion labeling of the corneal surface following scoring of all clinical parameters. Each eye was scored independently. Clinically clear eyes were scored as such if no apparent signs of disease were present in any clinical parameter during the chronic phase.
At day 15 post infection, a stage that will be during chronic immune-associated disease with no virus present, animals were euthanized and the eyes were removed for histology. Random representative eyes were prepared by taking sections through the central cornea and processed by H&E histology for visualization. Sections were examined microscopically and photographed across the central cornea.
BALB/c eyes were scarified and infected with HSV-1 (RE), an HSV-1 strain that causes herpetic keratitis in 100% of ocular infections^31. Starting 24 hours post-infection, topical drops were applied in a masked fashion 4× per day for 8 days. Individual clinical parameters were monitored and scored in a masked fashion for 15 days.
BALB/c eyes were scarified and infected with 10,000 PFU per eye of HSV-1 RE, an HSV-1 strain that causes herpetic keratitis in 100% of ocular infections.
Referring to FIGS. 37-42, for example, individual clinical parameters were monitored and scored in a masked fashion for 15 days post infection. Parameters included weight, death, epiphora, blepharitis, corneal epithelium, corneal neovascularization, stromal opacity, scleral inflammation and fluorescently visualized slitlamp biomicroscopy.
24 hours post infection, topical drops were applied in a masked fashion 4× per day at 4 ul per drop to the surface of the eye. Topical drops consisted of 1% Trifluorthymidine (1% TFT; Viroptic), Ophthalmic Balanced Salt Solution (BSS), or (R)-DOI in Ophthalmic BSS.
as §1, with “preferentially” for “can”, “(BSS)” for “diluted 1:1 in PBS (BSS+PBS)”, “((R)-DOI)” for “(XTPFDOI)”, “TFT” for “TFT (TFT+PBS)”, “Slit lamp biomicroscopy also included fluorescein exclusion labeling of the corneal surface following scoring of all clinical parameters. Each eye was scored independently. Clinically clear eyes were scored as such if no apparent signs of disease were present in any clinical parameter during the chronic phase.” left out

[7] = tested on: asthma in a rat model; assay: Rat model of asthma (OVA); type: in vivo; settings: OVA (ovalbumin) allergen
Excerpt: OVA is ovalbumin, a frequently used allergen that induces robust, allergic pulmonary inflammation in laboratory rodents.

Compound | VEGF-mediated human vascular endothelium tubule formation [1] | vascular-like tubular growth from HMEC spheroids [2] | blood vessel sprouting, branching and formation from aortic rings [4] | signs of disease, including stromal opacity and corneal neovascularization [6] | weight loss associated with HSV-1 ocular infection [6] | # Deceased [6] | # Eyes showing signs of disease [6] | Clinically clear eyes [6] | stromal opacity score [6] | clinical scores (slit lamp score, corneal opacity, neovascularization) [6] | also measured
COc1cc(C[C@@H](C)N)c(OC)cc1I [(R)-DOI, (R)-1-(2,5-dimethoxy-4-iodophenyl)-2-aminopropane] | inhibit VEGF-mediated human vascular endothelium tubule formation | abrogated formation of vascular-like tubular growth | inhibit VEGF-mediated neovascularization from aortic rings; also recorded: inhibited blood vessel sprouting, branching and formation | reduced signs of disease | do not experience significant weight loss | 0/5 | 3/10* | 6/10 | increase in stromal opacity was muted | reduced slit lamp scores, corneal opacity and neovascularization | delay in reactivation of HSV-1 from TGs ([3]; relative to mock): 2 fold; HSV-1 reactivation and amount of infectious virus shed from latent neurons (PFU/ml/TG) [3]: inhibits HSV-1 reactivation from latent neurons; also recorded: significantly inhibited the number of reactivating TGs and the amount of infectious virus shed from neurons; HSV-1 reactivation and amount of infectious virus shed from latent neurons (PFU/ml/TG) ([3]; listed as DOI): significantly inhibited the degree of reactivation and amount of infectious virus shed from latent neurons; concentration at which the inhibitory effects began to no longer be as effective ([4]; neovascularization, sprouting, branching, networking): 10 nM; TNFα-induced inflammatory gene and protein expression [5]: potently inhibits TNFα-induced inflammatory gene and protein expression; disease relative to control BSS treatment ([6]; after day 8, chronic immuno-pathology): significantly reduced disease relative to control BSS treatment; eyes exhibiting complete clinical resolution ([6]; by day 15, drops topically applied for 7 days post infection): 60%; corneal neovascularization ([6]; compared to control BSS or TFT treated eyes): decreased development of corneal neovascularization; ocular histology (H&E, central cornea) [6]: markedly less disease presentation in all eyes examined; also recorded: most similar to uninfected eyes; ocular histology (H&E, central cornea) ([6]; listed as DOI): normal ocular morphology with an absence of clinical signs of ocular disease; clinical scores (slit lamp score, corneal opacity, neovascularization) ([6]; listed as DOI): suppressed development of all clinically scored parameters
COc1cc(CCN)c(OC)cc1I [2CI, 2-(4-Iodo-2,5-dimethoxyphenyl)ethan-1-amine] | – | abrogated formation of vascular-like tubular growth | – | – | – | – | – | – | – | – | –
O=c1[nH]c(=O)n([C@H]2C[C@H](O)[C@@H](CO)O2)cc1C(F)(F)F [1% TFT, trifluorothymidine, reference compound] | – | – | – | reduced signs of disease | experienced weight loss associated with HSV-1 ocular infections | 0/5 | 7/10 | 0/10 | markedly increased opacity score | initially controlled ocular disease development relative to control BSS treated eyes | ocular histology (H&E, central cornea) ([6]; listed as TFT): immune cell infiltration, thickening of the stroma, neovascularization, and disruption of the corneal epithelial layers
O=C(c1ccc(F)cc1)C1CCN(CCCCc2ccccc2)CC1 [4F4PP, reference compound] | inhibit VEGF-mediated human vascular endothelium tubule formation | – | inhibit VEGF-mediated neovascularization from aortic rings | – | – | – | – | – | – | – | –
CCN(CC)C(=O)[C@@H]1C=C2c3cccc4[nH]cc(c34)C[C@H]2N(C)C1 [LSD] | – | – | – | – | – | – | – | – | – | – | symptoms of asthma [7]: can prevent symptoms of asthma
NCCc1c[nH]c2ccc(O)cc12 [serotonin, 5-hydroxytryptamine] | – | induces vascularization-like replication and tubule growth | – | – | – | – | – | – | – | – | –
